Assay results published in patent publication US20050282743A1, “Molecular interactions in cells” (Arbor Vita Corporation, priority 2001, published 2005).
Ends that are not written are not given here. Peptide text beside a SMILES is read from it. * marks the point of attachment. Biotin = O=C1N[C@H]2[C@H](CS[C@H]2CCCCC(=O)*)N1

Columns and labels:
Test in all cases: G' assay (10 uM PL peptide), results of TABLE 7 and TABLE 12
Format in all cases: binding
[1] = molecular target: T1, PDZ protein (GST-PDZ fusion) (Homo sapiens, UniProt Q9BYB0); details: PDZ SHANK3, PDZ Domain 1
T1 construct: made in house; host or cells: E. coli (DH5alpha, BL21 or JM109)
T1 sequence (Q9BYB0 whole entry, the tested form may be a part): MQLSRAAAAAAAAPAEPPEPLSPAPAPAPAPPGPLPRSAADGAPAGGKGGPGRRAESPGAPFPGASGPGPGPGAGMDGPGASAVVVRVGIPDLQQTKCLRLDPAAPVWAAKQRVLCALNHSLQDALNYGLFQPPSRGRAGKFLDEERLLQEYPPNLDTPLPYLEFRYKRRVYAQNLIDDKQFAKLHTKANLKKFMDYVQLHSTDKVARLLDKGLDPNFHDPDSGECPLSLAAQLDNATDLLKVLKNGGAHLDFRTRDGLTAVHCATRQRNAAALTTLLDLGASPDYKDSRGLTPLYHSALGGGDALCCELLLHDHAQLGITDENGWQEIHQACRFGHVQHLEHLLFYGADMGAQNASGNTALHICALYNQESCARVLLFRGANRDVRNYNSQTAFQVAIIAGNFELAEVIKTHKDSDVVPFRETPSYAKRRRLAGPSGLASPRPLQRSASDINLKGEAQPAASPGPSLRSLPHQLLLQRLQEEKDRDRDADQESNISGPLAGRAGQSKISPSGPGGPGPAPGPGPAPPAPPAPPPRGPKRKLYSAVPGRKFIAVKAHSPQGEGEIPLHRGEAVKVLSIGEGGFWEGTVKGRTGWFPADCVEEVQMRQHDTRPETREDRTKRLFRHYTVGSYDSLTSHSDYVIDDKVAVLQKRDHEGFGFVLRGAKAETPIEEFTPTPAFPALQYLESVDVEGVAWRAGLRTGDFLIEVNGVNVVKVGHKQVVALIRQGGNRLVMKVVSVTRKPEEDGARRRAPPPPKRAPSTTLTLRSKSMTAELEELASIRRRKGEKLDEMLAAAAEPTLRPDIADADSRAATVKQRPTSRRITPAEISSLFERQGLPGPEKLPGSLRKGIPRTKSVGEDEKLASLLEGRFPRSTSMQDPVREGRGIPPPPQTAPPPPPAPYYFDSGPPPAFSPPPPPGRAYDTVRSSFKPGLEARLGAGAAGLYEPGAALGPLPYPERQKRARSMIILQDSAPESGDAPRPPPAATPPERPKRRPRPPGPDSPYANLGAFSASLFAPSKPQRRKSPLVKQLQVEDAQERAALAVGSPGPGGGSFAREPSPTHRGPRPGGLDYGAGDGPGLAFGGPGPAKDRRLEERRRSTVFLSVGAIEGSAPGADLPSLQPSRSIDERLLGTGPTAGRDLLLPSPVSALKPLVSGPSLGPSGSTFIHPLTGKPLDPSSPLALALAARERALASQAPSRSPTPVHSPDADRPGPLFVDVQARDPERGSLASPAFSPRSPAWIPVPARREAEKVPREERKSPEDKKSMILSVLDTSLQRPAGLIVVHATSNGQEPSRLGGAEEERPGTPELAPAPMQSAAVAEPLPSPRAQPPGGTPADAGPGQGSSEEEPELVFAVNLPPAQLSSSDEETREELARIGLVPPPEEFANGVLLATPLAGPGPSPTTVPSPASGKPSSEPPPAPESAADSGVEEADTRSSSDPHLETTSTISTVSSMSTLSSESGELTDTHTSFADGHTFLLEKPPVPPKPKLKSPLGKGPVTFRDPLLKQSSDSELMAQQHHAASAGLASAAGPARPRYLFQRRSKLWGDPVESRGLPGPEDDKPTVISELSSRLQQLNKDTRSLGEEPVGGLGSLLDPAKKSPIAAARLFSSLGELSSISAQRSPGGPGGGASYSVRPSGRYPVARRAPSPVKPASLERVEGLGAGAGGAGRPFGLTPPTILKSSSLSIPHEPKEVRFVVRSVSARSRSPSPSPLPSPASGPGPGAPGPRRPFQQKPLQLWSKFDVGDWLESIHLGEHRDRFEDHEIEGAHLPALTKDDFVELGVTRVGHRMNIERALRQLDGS
Summary of the method: (§1)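 Biotinylated PL peptides at 10 uM (vs 20 uM in G^0 assay) bound to GST-PDZ fusions; PDZ protein at 5 ug/ml unless another concentration listed. Bound peptide read as A450 nm, classified 0–5 (0 = A450 0; 5 = A450 >4 repeated).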

[2] = molecular target: T2, PDZ protein (GST-PDZ fusion) (Homo sapiens, UniProt Q5T2W1); details: PDZ PDZK1, PDZ Domain 2, 3, 4
T2 construct: made in house; host or cells: E. coli (DH5alpha, BL21 or JM109)
T2 sequence (Q5T2W1 1-519): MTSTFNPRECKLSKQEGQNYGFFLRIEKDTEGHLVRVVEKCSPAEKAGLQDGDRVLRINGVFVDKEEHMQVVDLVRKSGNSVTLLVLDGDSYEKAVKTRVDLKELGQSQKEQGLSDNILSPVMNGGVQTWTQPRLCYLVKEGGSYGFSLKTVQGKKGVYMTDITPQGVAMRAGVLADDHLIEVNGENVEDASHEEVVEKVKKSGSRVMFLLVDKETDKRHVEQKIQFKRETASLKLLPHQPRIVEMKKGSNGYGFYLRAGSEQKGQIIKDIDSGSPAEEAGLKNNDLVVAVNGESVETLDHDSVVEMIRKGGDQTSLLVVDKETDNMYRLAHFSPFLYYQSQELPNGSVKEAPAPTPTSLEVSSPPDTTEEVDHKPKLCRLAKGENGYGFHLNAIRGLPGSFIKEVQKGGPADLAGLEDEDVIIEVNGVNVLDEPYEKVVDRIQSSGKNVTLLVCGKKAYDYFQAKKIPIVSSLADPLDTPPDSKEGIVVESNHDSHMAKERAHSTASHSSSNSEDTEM
Summary of the method: as §1

[3] = molecular target: T3, PDZ protein (GST-PDZ fusion) (Homo sapiens, UniProt Q9Y2H9); details: PDZ KIAA0973, PDZ Domain 1
T3 construct: made in house; host or cells: E. coli (DH5alpha, BL21 or JM109)
T3 sequence (Q9Y2H9 whole entry, the tested form may be a part): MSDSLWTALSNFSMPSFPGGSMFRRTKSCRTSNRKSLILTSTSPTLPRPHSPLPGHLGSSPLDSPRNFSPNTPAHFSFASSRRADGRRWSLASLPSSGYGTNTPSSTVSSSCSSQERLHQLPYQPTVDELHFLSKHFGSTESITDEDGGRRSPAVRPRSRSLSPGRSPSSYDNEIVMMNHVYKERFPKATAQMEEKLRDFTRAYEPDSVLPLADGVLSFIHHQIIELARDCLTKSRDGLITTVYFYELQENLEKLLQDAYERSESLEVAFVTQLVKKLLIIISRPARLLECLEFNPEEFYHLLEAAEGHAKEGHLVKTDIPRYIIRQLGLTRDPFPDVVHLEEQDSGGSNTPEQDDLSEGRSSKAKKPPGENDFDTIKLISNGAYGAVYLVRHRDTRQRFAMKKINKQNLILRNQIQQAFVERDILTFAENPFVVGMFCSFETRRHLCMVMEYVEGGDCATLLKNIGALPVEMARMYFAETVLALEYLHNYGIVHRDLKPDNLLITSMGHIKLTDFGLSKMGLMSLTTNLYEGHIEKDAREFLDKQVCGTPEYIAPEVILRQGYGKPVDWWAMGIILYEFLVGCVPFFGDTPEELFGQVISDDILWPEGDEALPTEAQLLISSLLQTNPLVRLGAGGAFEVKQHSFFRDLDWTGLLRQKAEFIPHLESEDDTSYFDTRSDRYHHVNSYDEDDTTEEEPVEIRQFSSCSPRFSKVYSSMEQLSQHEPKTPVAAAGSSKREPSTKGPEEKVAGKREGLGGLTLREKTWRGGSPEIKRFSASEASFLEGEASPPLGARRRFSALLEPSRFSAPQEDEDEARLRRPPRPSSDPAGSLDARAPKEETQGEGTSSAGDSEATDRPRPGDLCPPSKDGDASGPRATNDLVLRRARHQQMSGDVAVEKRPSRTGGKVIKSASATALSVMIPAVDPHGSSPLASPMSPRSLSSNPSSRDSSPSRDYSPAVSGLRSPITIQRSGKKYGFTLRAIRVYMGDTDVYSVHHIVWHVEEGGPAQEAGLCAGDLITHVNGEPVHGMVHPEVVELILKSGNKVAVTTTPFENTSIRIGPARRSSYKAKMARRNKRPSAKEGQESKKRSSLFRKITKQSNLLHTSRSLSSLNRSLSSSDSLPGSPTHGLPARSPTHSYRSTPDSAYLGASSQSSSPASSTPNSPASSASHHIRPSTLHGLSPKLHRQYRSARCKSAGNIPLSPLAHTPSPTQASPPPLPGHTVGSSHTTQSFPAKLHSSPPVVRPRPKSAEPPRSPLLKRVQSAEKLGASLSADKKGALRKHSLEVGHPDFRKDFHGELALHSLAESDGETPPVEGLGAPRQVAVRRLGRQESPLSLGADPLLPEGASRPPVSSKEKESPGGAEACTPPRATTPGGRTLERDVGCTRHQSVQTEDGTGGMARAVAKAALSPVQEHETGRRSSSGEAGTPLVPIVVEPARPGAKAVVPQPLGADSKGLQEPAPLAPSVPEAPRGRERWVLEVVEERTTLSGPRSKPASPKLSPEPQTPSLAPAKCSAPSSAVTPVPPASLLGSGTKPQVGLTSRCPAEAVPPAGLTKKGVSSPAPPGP
Summary of the method: as §1

[4] = molecular target: T4, PDZ protein (GST-PDZ fusion) (Homo sapiens, UniProt Q9Y3R0)
T4 construct: made in house; host or cells: E. coli (DH5alpha, BL21 or JM109)
T4 sequence (Q9Y3R0 1-1128): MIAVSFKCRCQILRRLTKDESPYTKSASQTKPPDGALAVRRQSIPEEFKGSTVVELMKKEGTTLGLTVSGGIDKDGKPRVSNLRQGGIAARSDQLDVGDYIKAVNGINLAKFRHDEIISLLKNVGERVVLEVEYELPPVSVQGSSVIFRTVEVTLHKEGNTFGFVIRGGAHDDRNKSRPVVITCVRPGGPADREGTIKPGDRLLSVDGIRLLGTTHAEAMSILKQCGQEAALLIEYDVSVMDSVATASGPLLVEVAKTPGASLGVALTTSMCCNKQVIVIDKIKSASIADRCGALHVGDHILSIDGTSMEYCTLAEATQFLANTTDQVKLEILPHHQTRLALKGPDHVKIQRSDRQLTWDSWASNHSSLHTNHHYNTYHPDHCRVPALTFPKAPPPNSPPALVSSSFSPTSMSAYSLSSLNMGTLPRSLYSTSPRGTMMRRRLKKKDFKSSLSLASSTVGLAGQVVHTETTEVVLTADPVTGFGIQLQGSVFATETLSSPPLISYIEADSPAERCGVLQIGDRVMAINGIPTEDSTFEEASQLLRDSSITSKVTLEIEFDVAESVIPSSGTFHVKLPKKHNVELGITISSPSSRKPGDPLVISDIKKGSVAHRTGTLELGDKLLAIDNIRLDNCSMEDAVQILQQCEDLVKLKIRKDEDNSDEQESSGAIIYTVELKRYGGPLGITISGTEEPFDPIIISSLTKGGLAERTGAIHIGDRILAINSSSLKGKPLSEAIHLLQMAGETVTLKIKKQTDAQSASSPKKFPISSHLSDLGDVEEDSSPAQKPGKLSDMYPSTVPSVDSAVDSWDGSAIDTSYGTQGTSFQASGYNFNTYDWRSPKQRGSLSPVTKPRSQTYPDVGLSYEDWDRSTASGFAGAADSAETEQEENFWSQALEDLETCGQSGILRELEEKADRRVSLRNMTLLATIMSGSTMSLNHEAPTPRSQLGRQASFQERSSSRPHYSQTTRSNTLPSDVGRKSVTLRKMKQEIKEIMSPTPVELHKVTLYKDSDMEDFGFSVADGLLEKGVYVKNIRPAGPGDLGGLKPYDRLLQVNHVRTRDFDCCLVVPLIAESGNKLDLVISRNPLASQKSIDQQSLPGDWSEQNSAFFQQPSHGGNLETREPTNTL
Summary of the method: as §1

| Compound | Classification [1] | Classification [2] | Classification [3] | Classification ([4]; PDZ GRIP1, PDZ Domain 3) | Classification ([4]; PDZ GRIP1, PDZ Domain 6) |
| --- | --- | --- | --- | --- | --- |
| CC[C@H](C)[C@H](NC(=O)[C@H](CC(=O)O)NC(=O)[C@H](CCC(=O)O)NC(=O)[C@H](CCCNC(=N)N)NC(=O)[C@@H](NC(=O)CCCC[C@@H]1SC[C@@H]2NC(=O)N[C@@H]21)[C@@H](C)O)C(=O)N[C@@H](Cc1ccc(O)cc1)C(=O)N[C@H](C(=O)N[C@@H](CC(N)=O)C(=O)N[C@@H](Cc1ccc(O)cc1)C(=O)N1CCC[C@H]1C(=O)N[C@H](C(=O)N[C@@H](Cc1ccccc1)C(=O)N[C@@H](CO)C(=O)N[C@@H](CCCNC(=N)N)C(=O)N[C@@H](CCCNC(=N)N)C(=O)N1CCC[C@H]1C(=O)N[C@@H](CCCCN)C(=O)N[C@H](C(=O)N[C@@H](CCCNC(=N)N)C(=O)N[C@H](C(=O)O)C(C)C)[C@@H](C)O)[C@@H](C)O)C(C)C [DNAM-1] (Biotin-TREDIYVNYPTFSRRPKTRV-OH; C-terminus assumed) | 2 (A450 nm 1-2) | – | – | – | – |
| CC(C)C[C@H](NC(=O)[C@H](C)NC(=O)[C@@H](NC(=O)[C@H](CCC(=O)O)NC(=O)[C@H](CCCNC(=N)N)NC(=O)[C@H](CCCNC(=N)N)NC(=O)CNC(=O)[C@H](CCC(N)=O)NC(=O)[C@H](CC(C)C)NC(=O)[C@H](CCCNC(=N)N)NC(=O)CNC(=O)CNC(=O)[C@H](CCCNC(=N)N)NC(=O)[C@H](C)NC(=O)[C@H](CO)NC(=O)[C@H](CCCNC(=N)N)NC(=O)CNC(=O)CNC(=O)[C@H](C)NC(=O)[C@H](C)NC(=O)CCCC[C@@H]1SC[C@@H]2NC(=O)N[C@@H]21)[C@@H](C)O)C(=O)O [HPV E6 33 (modified)] (Biotin-AAGGRSARGGRLQGRRETAL-OH; C-terminus assumed) | 2 (A450 nm 1-2) | 1 (A450 nm 0-1) | – | – | – |
| LASKSAEEGKQIPDSLSTDL (Biotin-LASKSAEEGKQIPDSLSTDL) [Dock2] | 1 (A450 nm 0-1) | – | – | – | – |
| CSCC[C@H](NC(=O)[C@H](C)NC(=O)[C@H](CCCNC(=N)N)NC(=O)CNC(=O)[C@@H](NC(=O)[C@H](Cc1c[nH]c2ccccc12)NC(=O)[C@H](CCCNC(=N)N)NC(=O)CNC(=O)CCCC[C@@H]1SC[C@@H]2NC(=O)N[C@@H]21)[C@@H](C)O)C(=O)N[C@@H](CO)C(=O)N[C@@H](C)C(=O)N[C@@H](Cc1c[nH]c2ccccc12)C(=O)N[C@@H](CCCCN)C(=O)N1CCC[C@H]1C(=O)N[C@H](C(=O)N[C@@H](CCCNC(=N)N)C(=O)N[C@@H](CCCNC(=N)N)C(=O)N[C@@H](CCC(=O)O)C(=O)N[C@H](C(=O)N[C@@H](CCC(=O)O)C(=O)N[C@H](C(=O)O)C(C)C)[C@@H](C)O)[C@@H](C)O [HPV E6 #35 (modified)] (Biotin-GRWTGRAMSAWKPTRRETEV-OH; C-terminus assumed) | – | – | 2 (A450 nm 1-2) | 2 (A450 nm 1-2) | 2 (A450 nm 1-2) |
| CC(C)C[C@H](NC(=O)[C@H](C)NC(=O)[C@@H](NC(=O)[C@@H](NC(=O)[C@H](Cc1c[nH]cn1)NC(=O)[C@H](CC(C)C)NC(=O)CNC(=O)[C@H](CCC(N)=O)NC(=O)CNC(=O)CNC(=O)[C@H](C)NC(=O)[C@H](C)NC(=O)[C@H](CCCNC(=N)N)NC(=O)[C@H](C)NC(=O)[C@H](CO)NC(=O)[C@H](CC(=O)O)NC(=O)[C@H](CC(=O)O)NC(=O)[C@H](Cc1c[nH]c2ccccc12)NC(=O)[C@H](C)NC(=O)CCCC[C@@H]1SC[C@@H]2NC(=O)N[C@@H]21)C(C)C)[C@@H](C)O)C(=O)O [LPAP] (Biotin-AWDDSARAAGGQGLHVTAL-OH; C-terminus assumed) | 3 (A450 nm 2-3) | 3 (A450 nm 2-3) | – | 1 (A450 nm 0-1) | – |

Continued, in another order:

| Classification [1] | Classification [2] | Classification [3] | Compound | Classification ([4]; PDZ GRIP1, PDZ Domain 3) | Classification ([4]; PDZ GRIP1, PDZ Domain 6) |
| --- | --- | --- | --- | --- | --- |
| 2 (A450 nm 1-2) | 1 (A450 nm 0-1) | – | CC[C@H](C)[C@H](NC(=O)[C@H](CO)NC(=O)[C@H](CCC(=O)O)NC(=O)[C@H](Cc1ccc(O)cc1)NC(=O)[C@H](CC(=O)O)NC(=O)[C@H](CC(N)=O)NC(=O)[C@H](CCC(=O)O)NC(=O)[C@H](CCCCN)NC(=O)CCCC[C@@H]1SC[C@@H]2NC(=O)N[C@@H]21)C(=O)N[C@@H](CO)C(=O)N[C@@H](CC(=O)O)C(=O)N[C@@H](CC(C)C)C(=O)N[C@@H](CCC(N)=O)C(=O)N[C@@H](CCC(N)=O)C(=O)NCC(=O)N[C@@H](CCCNC(=N)N)C(=O)N[C@@H](CC(=O)O)C(=O)N[C@H](C(=O)N[C@H](C(=O)N[C@@H](CCCNC(=N)N)C(=O)N[C@@H](CC(C)C)C(=O)O)[C@@H](C)O)[C@@H](C)CC [PAG] (Biotin-KENDYESISDLQQGRDITRL-OH; C-terminus assumed) | – | – |
| 3 (A450 nm 2-3) | – | – | CC(C)C[C@H](NC(=O)CNC(=O)[C@@H](NC(=O)[C@H](CO)NC(=O)[C@H](CC(N)=O)NC(=O)[C@H](Cc1ccccc1)NC(=O)CNC(=O)[C@H](C)NC(=O)[C@H](C)NC(=O)[C@H](Cc1ccccc1)NC(=O)[C@@H](NC(=O)CCCC[C@@H]1SC[C@@H]2NC(=O)N[C@@H]21)[C@@H](C)O)[C@@H](C)O)C(=O)N1CCC[C@H]1C(=O)N[C@@H](Cc1c[nH]cn1)C(=O)N[C@@H](CO)C(=O)N[C@H](C(=O)N[C@H](C(=O)N[C@@H](CCCNC(=N)N)C(=O)N[C@H](C(=O)O)C(C)C)[C@@H](C)O)[C@@H](C)O [Neuroligin] (Biotin-TFAAGFNSTGLPHSTTRV-OH; C-terminus assumed) | – | – |
| 5 (A450 nm of 4 more than 2× repeated) | 1 (A450 nm 0-1) | 2 (A450 nm 1-2) | PPATPSPRLALPAHHNATRL (Biotin-PPATPSPRLALPAHHNATRL) [Na+/Pi cotransporter 2] | – | – |
| 3 (A450 nm 2-3) | 2 (A450 nm 1-2) | 2 (A450 nm 1-2) | CC[C@H](C)[C@H](NC(=O)CNC(=O)[C@H](CO)NC(=O)[C@H](Cc1ccccc1)NC(=O)[C@@H](NC(=O)[C@H](CS)NC(=O)CNC(=O)CNC(=O)[C@H](C)NC(=O)[C@@H]1CCCN1C(=O)[C@@H](NC(=O)[C@@H]1CCCN1C(=O)CCCC[C@@H]1SC[C@@H]2NC(=O)N[C@@H]21)[C@@H](C)CC)[C@@H](C)O)C(=O)N[C@@H](Cc1ccccc1)C(=O)N1CCC[C@H]1C(=O)N[C@H](C(=O)N[C@@H](CC(C)C)C(=O)N[C@H](C(=O)N[C@@H](CO)C(=O)N1CCC[C@H]1C(=O)N[C@@H](CC(C)C)C(=O)O)[C@@H](C)O)[C@@H](C)O [KIA 1481] (Biotin-PIPAGGCTFSGIFPTLTSPL-OH; C-terminus assumed) | – | – |
